In the test the test system is IL-6. The test is described as follows: Inhibition of IL-6 in LPS-stimulated THP-1 human monocyte cells (HTRF). The class given is cell-based. As to conditions: for EC50: IL-6 inhibition, LPS-stimulated THP-1 cells, HTRF; for inhibition at 10 µM: THP-1, printed beside >10 μM EC50, top concentration 10 μM, meaning not given, read-out: percentage in parentheses after EC50 >10. In a few lines: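 THP-1 cells serum-reduced (1% FBS, 24 h), then 5000 cells/well preincubated 2 h with compound (10-point 1:3 series from 10 μM, 0.1% DMSO) before 500 ng/mL LPS for 22 h at 37 °C. Secreted IL-6 quantified by HTRF 665/620 ratio; DMSO-normalised duplicates fitted to four-parameter EC50; above 10 μM, % inhibition at 10 μM given.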
Background: Time-resolved FRET reads energy transfer from a long-lived donor to a nearby acceptor.

Take `O=C(Nc1cncc(-c2ccc3[nH]nc(-c4cc5c(-c6cccc(F)c6)cccc5[nH]4)c3c2)c1)C1CCCCC1` [Compound 23, N-(5-(3-(4-(3-Fluorophenyl)-1H-indol-2-yl)-1H-indazol-5-yl)pyridin-3-yl) cyclohexanecarboxamide]: the EC50 (usually the concentration that produces a half-maximal response) is greater than 10 µM and the inhibition at 10 µM stood at 34.2%.

In turn, `O=C(Nc1cncc(-c2ccc3[nH]nc(-c4cc5c(-c6ccncc6)cccc5[nH]4)c3c2)c1)C1CCCCC1` [Compound 135, N-(5-(3-(4-(Pyridin-4-yl)-1H-indol-2-yl)-1H-indazol-5-yl)pyridin-3-yl) cyclohexanecarboxamide] displayed an EC50 of 9.9 µM.

On to `CCC(=O)Nc1cncc(-c2ccc3[nH]nc(-c4cc5c(-c6cccc(F)c6)cccc5[nH]4)c3c2)c1` [Compound 1, N-(5-(3-(4-(3-Fluorophenyl)-1H-indol-2-yl)-1H-indazol-5-yl)pyridin-3-yl) propionamide], for which the midpoint of the response, the EC50, lay at 4.57 µM.

Turning to `Fc1cccc(-c2cccc3[nH]c(-c4n[nH]c5ccc(-c6ccccn6)cc45)cc23)c1` [Compound 28, 3-(4-(3-Fluorophenyl)-1H-indol-2-yl)-5-(pyridin-2-yl)-1H-indazole], the EC50 turned out to be 0.102 µM.

`O=C(Nc1cncc(-c2ccc3[nH]nc(-c4cc5c(-c6ccccn6)cccc5[nH]4)c3c2)c1)c1ccccc1` [Compound 151, N-(5-(3-(4-(Pyridin-2-yl)-1H-indol-2-yl)-1H-indazol-5-yl)pyridin-3-yl) benzamide]: the EC50 is greater than 10 µM and the inhibition at 10 µM amounted to 46.9%.

Take `FC1(F)CCN(Cc2cncc(-c3ccc4[nH]nc(-c5cc6c(-c7cccnc7)cccc6[nH]5)c4c3)c2)C1` [Compound 110, 5-(5-((3,3-Difluoropyrrolidin-1-yl)methyl)pyridin-3-yl)-3-(4-(pyridin-3-yl)-1H-indol-2-yl)-1H-indazole]: the EC50 is greater than 10 µM and the inhibition at 10 µM was determined as 32.2%.

`CN(C)Cc1cncc(-c2ccc3[nH]nc(-c4cc5c(-c6ccc(F)cc6)cccc5[nH]4)c3c2)c1` [Compound 41, 1-(5-(3-(4-(4-Fluorophenyl)-1H-indol-2-yl)-1H-indazol-5-yl)pyridin-3-yl)-N,N-dimethylmethanamine]: the EC50 was greater than 10 µM and the inhibition at 10 µM amounted to 22.9%.

In the case of `c1cc(-c2ccoc2)c2cc(-c3n[nH]c4ccc(-c5cncc(OC6CCNCC6)c5)cc34)[nH]c2c1` [Compound 716, 3-(4-(Furan-3-yl)-1H-indol-2-yl)-5-(5-(piperidin-4-yloxy)pyridin-3-yl)-1H-indazole], the concentration for a half-maximal effect (EC50) was greater than 10 µM and the inhibition at 10 µM turned out to be 25.5%.

As to `CN(C)Cc1cncc(-c2ccc3[nH]nc(-c4cc5c(-c6cccc(F)c6)cccc5[nH]4)c3c2)c1` [Compound 13, 1-(5-(3-(4-(3-Fluorophenyl)-1H-indol-2-yl)-1H-indazol-5-yl)pyridin-3-yl)-N,N-dimethylmethanamine], the response was half-maximal at 0.036 µM (EC50). This lies in the double-digit nanomolar range.

Compound `Fc1cccc(-c2cccc3[nH]c(-c4n[nH]c5ccc(-c6cccnc6)cc45)cc23)c1` [Compound 4, 3-(4-(3-Fluorophenyl)-1H-indol-2-yl)-5-(pyridin-3-yl)-1H-indazole] gave an EC50 of 0.058 µM.

Take `CC(C)CC(=O)Nc1cncc(-c2ccc3[nH]nc(-c4cc5c(-c6ccc(F)cc6)cccc5[nH]4)c3c2)c1` [Compound 30, N-(5-(3-(4-(4-Fluorophenyl)-1H-indol-2-yl)-1H-indazol-5-yl)pyridin-3-yl)-3-methylbutanamide]: the EC50 is greater than 10 µM and the inhibition at 10 µM turned out to be 27.9%.

The compound `c1ccc(-c2ccc3[nH]nc(-c4cc5c(-c6ccoc6)cccc5[nH]4)c3c2)nc1` [Compound 336, 3-(4-(Furan-3-yl)-1H-indol-2-yl)-5-(pyridin-2-yl)-1H-indazole] showed an EC50 of 0.09 µM.

As for `O=C(Nc1cncc(-c2ccc3[nH]nc(-c4cc5c(-c6ccccc6F)cccc5[nH]4)c3c2)c1)C1CCCC1` [Compound 78, N-(5-(3-(4-(2-Fluorophenyl)-1H-indol-2-yl)-1H-indazol-5-yl)pyridin-3-yl) cyclopentanecarboxamide], the EC50 was greater than 10 µM and the inhibition at 10 µM worked out at 54.1%.

As for `c1cc(N2CCCCC2)c2cc(-c3n[nH]c4ccc(-c5cncc(OC6CCCCC6)c5)cc34)[nH]c2c1` [Compound 635, 5-(5-(Cyclohexyloxy)pyridin-3-yl)-3-(4-(piperidin-1-yl)-1H-indol-2-yl)-1H-indazole], the EC50 was greater than 10 µM and the inhibition at 10 µM was 22.6%.

In the case of `O=C(Nc1cncc(-c2ccc3[nH]nc(-c4cc5ncccc5[nH]4)c3c2)c1)C1CCC1` [Compound 525, N-(5-(3-(1H-Pyrrolo[3,2-b]pyridin-2-yl)-1H-indazol-5-yl)pyridin-3-yl) cyclobutanecarboxamide], the EC50 was found to be 0.024 µM.

The compound `c1csc(-c2cccc3[nH]c(-c4n[nH]c5ccc(-c6ccncc6)cc45)cc23)c1` [Compound 354, 5-(pyridin-4-yl)-3-(4-(thiophen-2-yl)-1H-indol-2-yl)-1H-indazole] returned an EC50 of 0.15 µM.

Consider `CCCC(=O)Nc1cncc(-c2ccc3[nH]nc(-c4cc5c(-c6ccncc6)cccc5[nH]4)c3c2)c1` [Compound 129, N-(5-(3-(4-(Pyridin-4-yl)-1H-indol-2-yl)-1H-indazol-5-yl)pyridin-3-yl) butyramide], for which the EC50 is greater than 10 µM and the inhibition at 10 µM was 33.4%.

Turning to `CC(C)(C)CC(=O)Nc1cncc(-c2ccc3[nH]nc(-c4cc5c(-c6ccccc6F)cccc5[nH]4)c3c2)c1` [Compound 72, N-(5-(3-(4-(2-Fluorophenyl)-1H-indol-2-yl)-1H-indazol-5-yl)pyridin-3-yl)-3,3-dimethylbutanamide], the EC50 is greater than 10 µM and the inhibition at 10 µM was determined as 35.3%.

In the case of `CC(C)(C)CC(=O)Nc1cncc(-c2ccc3[nH]nc(-c4cc5c(-c6ccc(F)cc6)cccc5[nH]4)c3c2)c1` [Compound 44, N-(5-(3-(4-(4-Fluorophenyl)-1H-indol-2-yl)-1H-indazol-5-yl)pyridin-3-yl)-3,3-dimethylbutanamide], the EC50 is greater than 10 µM and the inhibition at 10 µM was 47.9%.

For `CC(C)(C)C(=O)Nc1cncc(-c2ccc3[nH]nc(-c4cc5c(-c6cc(F)cc(CNS(C)(=O)=O)c6)cccc5[nH]4)c3c2)c1` [Compound 484, N-(5-(3-(4-(3-Fluoro-5-(methylsulfonamidomethyl)phenyl)-1H-indol-2-yl)-1H-indazol-5-yl)pyridin-3-yl)pivalamide], the EC50 is greater than 10 µM and the inhibition at 10 µM was 24.2%.

In the case of `CCCC(=O)Nc1cncc(-c2ccc3[nH]nc(-c4cc5c(-c6cccc(F)c6)cccc5[nH]4)c3c2)c1` [Compound 17, N-(5-(3-(4-(3-Fluorophenyl)-1H-indol-2-yl)-1H-indazol-5-yl)pyridin-3-yl) butyramide], the EC50 was greater than 10 µM and the inhibition at 10 µM amounted to 24.7%.

Turning to `CC(C)(C)C(=O)Nc1cncc(-c2ccc3[nH]nc(-c4cc5c(-c6ccc(F)cc6)cccc5[nH]4)c3c2)c1` [Compound 36, N-(5-(3-(4-(4-Fluorophenyl)-1H-indol-2-yl)-1H-indazol-5-yl)pyridin-3-yl) pivalamide], the EC50 came out at 0.277 µM.

Turning to `CC(C)C(=O)Nc1cncc(-c2ccc3[nH]nc(-c4cc5c(-c6ccsc6)cccc5[nH]4)c3c2)c1` [Compound 289, N-(5-(3-(4-(Thiophen-3-yl)-1H-indol-2-yl)-1H-indazol-5-yl)pyridin-3-yl) isobutyramide], the 50% effective concentration (EC50) is greater than 10 µM and the inhibition at 10 µM was 48.3%.

Compound `c1cnc2cc(-c3n[nH]c4ccc(-c5cncc(CN6CCCCC6)c5)cc34)[nH]c2c1` [Compound 519, 5-(5-(Piperidin-1-ylmethyl)pyridin-3-yl)-3-(1H-pyrrolo[3,2-b]pyridin-2-yl)-1H-indazole] yielded an EC50 of 0.097 µM. This counts as double-digit nanomolar.

For the compound `O=C(Nc1cncc(-c2ccc3[nH]nc(-c4cc5c(-c6cccc(F)c6)cccc5[nH]4)c3c2)c1)C1CC1` [Compound 20, N-(5-(3-(4-(3-Fluorophenyl)-1H-indol-2-yl)-1H-indazol-5-yl)pyridin-3-yl) cyclopropanecarboxamide], the EC50 is greater than 10 µM and the inhibition at 10 µM worked out at 44.7%.

As to `CC(C)(C)CC(=O)Nc1cncc(-c2ccc3[nH]nc(-c4cc5ccccc5[nH]4)c3c2)c1` [Compound 268, N-(5-(3-(1H-Indol-2-yl)-1H-indazol-5-yl)pyridin-3-yl)-3,3-dimethylbutanamide], the EC50 was greater than 10 µM and the inhibition at 10 µM came out at 0%.

The compound `Cc1ncc(-c2ccc3[nH]nc(-c4cc5c(-c6ccncc6)cccc5[nH]4)c3c2)n1C` [Compound 601, 5-(1,2-Dimethyl-1H-imidazol-5-yl)-3-(4-(pyridin-4-yl)-1H-indol-2-yl)-1H-indazole] gave a concentration for a half-maximal effect (EC50) of 4.17 µM.

`c1ccc2[nH]c(-c3n[nH]c4ccc(-c5cncc(CN6CCCCC6)c5)cc34)cc2c1` [Compound 267, 3-(1H-Indol-2-yl)-5-(5-(piperidin-1-ylmethyl)pyridin-3-yl)-1H-indazole] returned an EC50 of 1.73 µM.

On to `Cc1ccncc1-c1ccc2[nH]nc(-c3cc4c(-c5ccccn5)cccc4[nH]3)c2c1` [Compound 145, 5-(4-Methylpyridin-3-yl)-3-(4-(pyridin-2-yl)-1H-indol-2-yl)-1H-indazole], for which the EC50 came out at 4.84 µM.

On to `O=C(Nc1cncc(-c2ccc3[nH]nc(-c4cc5ccccc5[nH]4)c3c2)c1)C1CCC1` [Compound 273, N-(5-(3-(1H-Indol-2-yl)-1H-indazol-5-yl)pyridin-3-yl) cyclobutanecarboxamide], for which the EC50 is greater than 10 µM and the inhibition at 10 µM worked out at 44.3%.

Take `O=C(Nc1cncc(-c2ccc3[nH]nc(-c4cc5ccccc5[nH]4)c3c2)c1)c1ccccc1` [Compound 263, N-(5-(3-(1H-Indol-2-yl)-1H-indazol-5-yl)pyridin-3-yl)benzamide]: the EC50 was greater than 10 µM and the inhibition at 10 µM turned out to be 0%.

Values taken from US10604512B2, “3-(1H-indol-2-yl)-1H-indazoles and therapeutic uses thereof” (Samumed, LLC, priority 2015, dated 2020).
